Each structure is given as a SMILES string.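 Cells were grown in 96-well plates and exposed to each compound for 48 hours at five concentrations; endpoints were interpolated linearly between bracketing concentrations, or set to the highest concentration if not reached. Here, GI50 denotes the concentration required for 50% inhibition of growth. TGI denotes the concentration required for complete inhibition of growth.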 Some results are limits rather than exact numbers.

Among the test systems are BT-549 breast; HL-60(TB) leukemia; HOP-62 NSCLC; HT29 colon; M14 melanoma; MOLT-4 leukemia; OVCAR-8 ovarian; UACC-257 melanoma.
Common to all, as to test: NCI anticancer screen, dose series, 48 h

Turning to `NC1=NC(c2ccc(Cl)cc2)C2=C(N1)/C(=C/c1ccc(Cl)cc1)CCC2` (configuration not stated), the GI50 is 2.74 µM with BT-549 breast; 12.3 µM with HL-60(TB) leukemia; 15 µM in the test with HOP-62 NSCLC; 3.14 µM in the test on HT29 colon; 2.77 µM in the test on M14 melanoma; 9.47 µM in the test on MOLT-4 leukemia. Moreover, the GI50 was 4.24 µM with OVCAR-8 ovarian and 7.14 µM with UACC-257 melanoma. Besides, the TGI is 10.7 µM in the test on BT-549 breast; 45.8 µM with HL-60(TB) leukemia; 53 µM in the test on HOP-62 NSCLC; 9.78 µM in the test on HT29 colon; 11.6 µM in the test on M14 melanoma; 57 µM in the test with MOLT-4 leukemia. The TGI is above 32.4 µM with OVCAR-8 ovarian and 28.1 µM with UACC-257 melanoma.

For the molecule `CN(C)C(=O)c1cc2cnc(Nc3ccc(-c4csc5c(=O)cc(N6CCOCC6)oc45)cc3)nc2n1C1CCCC1`, the GI50 in the test on BT-549 breast is 0.166 µM; with HL-60(TB) leukemia, 0.0877 µM; in the test on HOP-62 NSCLC, 0.269 µM; in the test with HT29 colon, 0.27 µM; in the test with M14 melanoma, 0.184 µM; in the test with MOLT-4 leukemia, 0.23 µM. Also, the GI50 is 0.268 µM in the test with OVCAR-8 ovarian and 0.269 µM in the test with UACC-257 melanoma. Further, the TGI with BT-549 breast was 0.686 µM; with HL-60(TB) leukemia it was 0.698 µM; with HOP-62 NSCLC, 1.67 µM; in the test with HT29 colon, above 100 µM; with M14 melanoma it was 0.601 µM; in the test with MOLT-4 leukemia, 3.26 µM. Moreover, the figures for the TGI with OVCAR-8 ovarian and with UACC-257 melanoma were above 30.5 µM and 0.909 µM, respectively.

Take `C=CC1CC12C(=O)C1OC2(C)C2C(=O)c3c(O)ccc(O)c3C(=O)C12` (configuration not stated): the GI50 with BT-549 breast was 10.2 µM; in the test with HL-60(TB) leukemia it was 1.19 µM; in the test with HOP-62 NSCLC it was 9.66 µM; in the test on HT29 colon, 4.03 µM; in the test with M14 melanoma it was 3.58 µM; in the test on MOLT-4 leukemia, 0.617 µM. The GI50 in the test on OVCAR-8 ovarian was 6.24 µM; in the test on UACC-257 melanoma, 3.75 µM. Further, the TGI with BT-549 breast stood at 26.3 µM; with HL-60(TB) leukemia, 3.79 µM; in the test on HOP-62 NSCLC, 25 µM; in the test on HT29 colon it was 16 µM; in the test with M14 melanoma it was 14.7 µM; with MOLT-4 leukemia it was 17 µM. The TGI stood at 20.2 µM with OVCAR-8 ovarian and 11.2 µM with UACC-257 melanoma.

Consider `S=C1Nc2ccc(Cl)cc2C2(c3ccccc3)N3CCN=C3NN12` (configuration not stated), for which the GI50 in the test with BT-549 breast is 30.8 µM; with HL-60(TB) leukemia, 22.7 µM; with HOP-62 NSCLC it was 33.3 µM; in the test with HT29 colon, 28.1 µM; with M14 melanoma, 39.9 µM; in the test with MOLT-4 leukemia, 22.8 µM. For the same molecule, the figures for the GI50 in the test on OVCAR-8 ovarian and with UACC-257 melanoma were 52.3 µM and 37 µM, respectively. Moreover, the TGI in the test with BT-549 breast was above 100 µM; in the test with HL-60(TB) leukemia it was 53 µM; with HOP-62 NSCLC it was above 100 µM; with HT29 colon, above 100 µM; in the test with M14 melanoma, above 100 µM; with MOLT-4 leukemia, 61.6 µM. The TGI in the test on OVCAR-8 ovarian and with UACC-257 melanoma was above 100 µM throughout.

Take `N#CC1=C(N)NC(=O)NC12Nc1ccccc1S2` (configuration not stated): the GI50 is 24.2 µM in the test on BT-549 breast; 34.5 µM in the test with HL-60(TB) leukemia; 23.1 µM with HOP-62 NSCLC; 36.7 µM in the test with HT29 colon; 19.7 µM with M14 melanoma; above 48.3 µM in the test on MOLT-4 leukemia. Moreover, the GI50 in the test on OVCAR-8 ovarian was 6.07 µM; in the test on UACC-257 melanoma, 1.42 µM. Also, the TGI in the test on BT-549 breast was 93.6 µM; in the test on HL-60(TB) leukemia, above 100 µM; in the test with HOP-62 NSCLC, 56.7 µM; in the test on HT29 colon, above 100 µM; in the test on M14 melanoma, 42.5 µM; in the test with MOLT-4 leukemia it was above 100 µM. In addition, the TGI in the test on OVCAR-8 ovarian was above 37.8 µM.

Turning to `CO[C@@H]1/C=C(C)/C=C/[C@@H](C)/C=C(\C)C(=O)OC(/C(C)=C/C=C(\C)CNC(=O)[C@H](CO)NC=O)[C@@H](C)/C=C/C=C/[C@H](OC)CC/C=C(C)/C=C/C1` (some centres not stated), the GI50 in the test with BT-549 breast, in the test on HL-60(TB) leukemia, in the test with HOP-62 NSCLC, with HT29 colon, in the test with M14 melanoma and with MOLT-4 leukemia was below 0.005 µM in each case. For the same molecule, the figures for the GI50 with OVCAR-8 ovarian and in the test with UACC-257 melanoma were 0.0105 µM and 0.0238 µM, respectively. Further, the TGI in the test with BT-549 breast was 12.1 µM; in the test on HL-60(TB) leukemia, above 50 µM; with HOP-62 NSCLC, below 0.005 µM; with HT29 colon, above 50 µM; with M14 melanoma, below 0.005 µM; with MOLT-4 leukemia, above 42.2 µM. For the same molecule, the TGI stood at 3.18 µM with OVCAR-8 ovarian and 0.0365 µM in the test with UACC-257 melanoma.

`CC(=O)O/N=C1/C(c2c(O)[nH]c3cc(Br)ccc23)=Nc2ccccc21`: the GI50 in the test on BT-549 breast is 1.28 µM; in the test with HL-60(TB) leukemia it was 1.88 µM; with HOP-62 NSCLC it was 2.05 µM; in the test with HT29 colon, 1.84 µM; in the test with M14 melanoma, 2 µM; in the test on MOLT-4 leukemia, 1.78 µM. Also, the GI50 with OVCAR-8 ovarian is 1.59 µM; in the test with UACC-257 melanoma it was 2.26 µM. Also, the TGI stood at 3.5 µM in the test on BT-549 breast; 4.37 µM in the test with HL-60(TB) leukemia; 4.53 µM in the test on HOP-62 NSCLC; 3.65 µM with HT29 colon; 4.88 µM with M14 melanoma; 5.07 µM in the test on MOLT-4 leukemia. In addition, the values for the TGI with OVCAR-8 ovarian and in the test with UACC-257 melanoma were 4.53 µM and 4.38 µM, respectively.

With `CN1CCN(Cc2ccc(NC(=O)c3ccc(C#Cc4c(N)ncc5ccc(F)cc45)cc3)cc2C(F)(F)F)CC1`, the GI50 is 3.19 µM with BT-549 breast; 0.935 µM in the test on HL-60(TB) leukemia; 0.883 µM with HOP-62 NSCLC; 0.876 µM with HT29 colon; 0.919 µM with M14 melanoma; 0.799 µM in the test with MOLT-4 leukemia. Besides, the GI50 was 0.955 µM in the test on OVCAR-8 ovarian and 1.02 µM in the test with UACC-257 melanoma. The TGI amounted to 9.68 µM in the test with BT-549 breast; 2.62 µM in the test with HL-60(TB) leukemia; 1.59 µM with HOP-62 NSCLC; 1.86 µM in the test on HT29 colon; 1.71 µM with M14 melanoma; 1.74 µM with MOLT-4 leukemia. Besides, the TGI in the test on OVCAR-8 ovarian was 1.81 µM; in the test with UACC-257 melanoma it was 1.91 µM.

On to `O=C(CCl)N1c2ccccc2Sc2ccc3ccccc3c21`, for which the GI50 with BT-549 breast was 1.56 µM; with HL-60(TB) leukemia, 1.07 µM; in the test on HOP-62 NSCLC it was 1.63 µM; in the test on HT29 colon, 1.28 µM; in the test with M14 melanoma, 1.66 µM; in the test on MOLT-4 leukemia, 0.478 µM. Further, the GI50 in the test on OVCAR-8 ovarian is 1.64 µM; with UACC-257 melanoma, 1.48 µM. Also, the TGI in the test with BT-549 breast came out at 3.52 µM; in the test on HL-60(TB) leukemia it was 5.13 µM; in the test with HOP-62 NSCLC, 3.05 µM; in the test on HT29 colon, 4.58 µM; in the test with M14 melanoma it was 3.43 µM; with OVCAR-8 ovarian, 3.71 µM. The same molecule returned a TGI in the test on UACC-257 melanoma of 2.87 µM.

(Values after PubChem BioAssay (NCI).)
